The values below come from patent US20100167260A1, “Use of N-Piperidine Derivative Compositions for Protecting Biological Systems” (MEDESTEA RESEARCH & PRODUCTION SPA, priority 2006, published 2010).

The subject of experiment [1] is rabbit heart. Kind of experiment: Carbonyl proteins in rabbit hearts after 1 h reperfusion. As for the experimental part: (§1) The hearts were quickly excised from anesthetized animals (55 mg/kg body weight sodium pentobarbital; ten rabbits for each experiment group were used) flushed with the respective experimental solutions and placed in either cold (4° C.) Celsior and Celsior plus 5 mM MP1001 or Celsior plus GSH 5 mM for 24 hours. Because Celsior standard solution contains 3 mM reduced glutathione (GSH), comparative experiments in term of “total antioxidant power” using equimolar antioxidant amount (e.g. adding 5 mM MP1001 or 5 mM GSH to Celsior) were performed.
(§2) At the end of cold preservation, the organs were then reperfused in a Langerdoff working heart model with oxygenated Krebs-Henseleit buffer (120 mM NaCl, 25 mM NaHCO3, 4.9 mM KCl, 1.2 mM KH2PO4, 2.5 mM CaCl2, 1.25 MgSO4 and 10 mM glucose). The buffers were bubbled regularly with a mixture of O2 (95%) and CO2 (5%); the CO2 helped maintain the buffer at a physiological pH (7.4). In the mean time, the apparatus had extensive water-jacketing connected to a water heater that maintained buffers and hearts at 37° C. The buffers was filtered through a Gelman GA-4, 0.8 μm metrical, membrane before the use. […]
(§3) Lipid peroxidation was determined by quantification of the release of malondialdeyde (MDA) accumulated in cells which was used as biomarker, essentially according to Buege Y. A. & Aust S. G., Method Enzymol. […]

For experiment [2], the system named is rabbit heart. Kind of experiment: LDH levels in the perfusate of rabbit hearts after 1 h reperfusion. How it is done:
as §1, §2, §3

In experiment [3] the test system is rabbit heart. Kind of experiment: Lipid peroxidation (MDA release) in rabbit hearts after 1 h reperfusion. How it is done: as §1, §2, §3
For experiment [4], the system named is rabbit heart. Description: Rabbit heart cold preservation (24 h, 4° C.) and Langendorff reperfusion: developed pressure. How it is done:
Male New Zealand rabbits (1.4-1.8 kg weight) were kept on a standard laboratory diet supplemented with “Nossan pellet” (both the animals and pellets are available from Nossan Company, Milan, Italy) and were housed for three weeks (relative humidity 50% ±10%, temperature 22° C.±1° C. and in a light/darkness cycle of 12 hours/12 hours, with first light at 7.30 a.m.) prior to the experiments; food and water were available ad libitum.
The hearts were quickly excised from anesthetized animals (55 mg/kg body weight sodium pentobarbital; ten rabbits for each experiment group were used) flushed with the respective experimental solutions and placed in either cold (4° C.) Celsior and Celsior plus 5 mM MP1001 or Celsior plus GSH 5 mM for 24 hours. Because Celsior standard solution contains 3 mM reduced glutathione (GSH), comparative experiments in term of “total antioxidant power” using equimolar antioxidant amount (e.g. adding 5 mM MP1001 or 5 mM GSH to Celsior) were performed. […]
After 24 hours of cold preservation and reperfusion for 1 hour, the developed pressure (as a measure of protection) of the hearts preserved in Celsior (standard/control) was a mean of 34±9.55 mmHg. […] We determined that this level of recovery was not sufficient and proceeded to add the cardioprotective antioxidant MP1001 (5 mM) or GSH (5 mM, to have a final, equimolar 8 mM “antioxidant concentration”).

For experiment [5], the system named is rabbit heart. Kind of experiment: Histopathological analysis of rabbit hearts after 1 h reperfusion. The conditions noted are these: hearts stored in Celsior plus 5 mM MP1001 as compared to GSH. How it is done:
as §1
as §2, with “use. A saline-filled latex balloon connected through a pressure transducer to a polygraph recorder was inserted into the left ventricle through a left atriotomy and secured by a suture to the mitrial annulus.” for “use.”

The mark [6] stands for this setting: rabbit hearts, 24 h cold preservation in Celsior (additive 5 mM where given).

Regarding `N[C@@H](CCC(=O)N[C@@H](CS)C(=O)NCC(=O)O)C(=O)O` [GSH, reduced glutathione, reference compound], in the experiment with rabbit heart [1] (5 mM supplement in Celsior), the “effect on carbonyl proteins vs standard Celsior” value is listed as “not modified”. Also, the “effect on LDH vs standard Celsior” value in the experiment on rabbit heart [2] (5 mM supplement in Celsior) was “not modified”. Besides, the “effect on lipid peroxidation vs standard Celsior” value in the experiment with rabbit heart [3] (additional 5 mM in Celsior) is recorded as “did not significantly modify this parameter”. Besides, the “protection (developed pressure) compared to standard Celsior solution” value in the experiment on rabbit heart [4] (5 mM added to Celsior (8 mM GSH final), 24 hours cold preservation, 1 h reperfusion) was “did not provide any additional protection”.

In the case of `CC1(C)CC(OC(=O)CCCCCCCCC(=O)OC2CC(C)(C)N(O)C(C)(C)C2)CC(C)(C)N1O` [MP1001, bis(1-hydroxy-2,2,6,6-tetramethyl-4-piperidinyl)decandioate], in the experiment with rabbit heart [5], the “histopathological analysis (myocyte injury, edema, endotelial damage)” value is “Hearts sustained less injury by all criteria examined”. The compound further had a carbonyl proteins in the experiment on rabbit heart [1] (setting [6]) of 48±11. Besides, in the experiment on rabbit heart [2] (setting [6]), the “LDH levels in the perfusate” value was 0.3±0.1. The “lipid peroxidation (malondialdeyde, MDA)” value in the experiment with rabbit heart [3] (setting [6]) came out at 0.31±0.10. Also, the developed pressure in the experiment on rabbit heart [4] (rabbit hearts, 24 hours cold (4° C.) preservation in Celsior (additive 5 mM where given), reperfusion for 1 hour) was determined as 88±9.02 mmHg.
